# From paper PMC9325861, “Mouse precision-cut liver slices as an ex vivo model to study drug-induced cholestasis” (Archives of Toxicology, 2022)
# Counter-ions that a name gives are not always drawn.
# Legend:
# Mrp3 (Abcc3) = experiment: qRT-PCR gene expression in mouse PCLS: Mrp3; type: cell-based; conditions: 48 h, in the presence and absence of BAs
# Procedure: In short, freshly prepared PCLS were transferred to 12-well plates (Greiner bio-one GmbH, Austria), one slice per well.
# (§1) Three PCLS incubated under a given condition were pooled in a 1.5-mL Rnase-free test tube, snap-frozen in liquid nitrogen, and stored at – 80 °C until analysis. RNA was isolated using a FavorPrep Tissue Total RNA Mini Kit (Favorgen, Vienna, Austria). Subsequently, the RNA yield was quantified using a NanoDrop One instrument (Thermo Fisher Scientific, Massachusetts, USA). Isolated RNA was reverse-transcribed to cDNA using a cDNA synthesis kit (Reverse Transcription System, Promega, Benelux B.V.). The cDNA samples were subsequently loaded in the thermal cycler with a program set to 22 °C for 10 min, 42 °C for 15 min, and 95 °C for 5 min.
# qRT-PCR was used to determine the relative mRNA expression levels for the mouse target genes: Bsep (Abcb11), Mrp2 (Abcc2), Mrp3 (Abcc3), Mrp4 (Abcc4), Ntcp (Slc10a1), Fxr (Nr1h4), Cyp7a1 (Cyp7a1), Collagen type 1a1 (Col1a1), Hsp47 (Serpinh1). Primer sequences of the genes tested are given in Supplementary Table S1. QRT-PCR was performed using, the dye, FastStart Universal SYBR Green Master Mix (Roche Diagnostics Netherlands B.V., Almere, the Netherlands) with the ViiA™ 7 Real-Time PCR System (Applied Biosystems, Bleiswijk, the Netherlands). […] Samples were measured in duplicates. […] Results are expressed as log2(fold change).
# human PCLS = tested on: human PCLS; design: method as in Vatakuti et al. [2017]; conditions: 30 µM CPZ, without BA mixture, ref Vatakuti et al. [2017]; cited from earlier work
# Hsp47 (Serpinh1) = experiment: qRT-PCR gene expression in mouse PCLS: Hsp47; type: cell-based; conditions: 48 h, in the presence of BAs, highest concentration (30 µM CPZ)
# Procedure: In short, freshly prepared PCLS were transferred to 12-well plates (Greiner bio-one GmbH, Austria), one slice per well. Each well was filled with 1.3 mL pre-heated (37 ℃) and oxygenated (80%) Williams Medium E (1X, glutaMAX-1), which had been supplemented with 25 mM D-glucose monohydrate and 50 μg/ml Gentamicin (denoted as WME GG). […] The DMSO concentration used was below 0.5% in the incubation medium, equivalent to DMSO concentrations in solutions prepared by dilution of BA stock solutions with WME GG.
# as §1, with “The cDNA samples were subsequently loaded in the thermal cycler with a program set to 22 °C for 10 min, 42 °C for 15 min, and 95 °C for 5 min.” left out
# qRT-PCR was used to determine the relative mRNA expression levels for the mouse target genes: Bsep (Abcb11), Mrp2 (Abcc2), Mrp3 (Abcc3), Mrp4 (Abcc4), Ntcp (Slc10a1), Fxr (Nr1h4), Cyp7a1 (Cyp7a1), Collagen type 1a1 (Col1a1), Hsp47 (Serpinh1). […] Samples were measured in duplicates. […] Results are expressed as log2(fold change).
# rat PCLS = tested on: rat PCLS; design: method as in Starokozhko et al. [2017a]; conditions: control 156.5, ref Starokozhko et al. [2017a]; cited from earlier work
Compound,Mrp3 gene expression (Mrp3 (Abcc3)),Decrease in ATP content (human PCLS) [%],Hsp47 gene expression (Hsp47 (Serpinh1)),Intracellular GCA concentration after drug incubation (rat PCLS) [pmol/mg protein]
"CN(C)CCCN1c2ccccc2Sc2ccc(Cl)cc21 [CPZ, Chlorpromazine hydrochloride]",reduces,40,significantly increased,
"COc1ccc(Cl)cc1C(=O)NCCc1ccc(S(=O)(=O)NC(=O)NC2CCCCC2)cc1 [GB, Glibenclamide]",,,,364.3
